Literature values in patent US20240173256A1, “HDL MIMICKING TARGETED DRUG DELIVERY SYSTEM FOR THE TREATMENT OF SOLID TUMORS” (University of North Texas Health Science Center, priority 2022, published 2024).
Like-named read-outs stand apart in the source and are kept apart here.

What was measured:
[1] = rodents
[2] = patients

| Compound | Cardiotoxicity [1] | Incidence of congestive heart failure ([2]; 400 mg/m^2) [%] | Incidence of congestive heart failure ([2]; 550 mg/m^2) [%] | Incidence of congestive heart failure ([2]; 700 mg/m^2) [%] |
| --- | --- | --- | --- | --- |
| CCCCC(=O)OCC(=O)[C@]1(O)Cc2c(O)c3c(c(O)c2[C@@H](O[C@H]2C[C@H](NCc4ccccc4)[C@H](O)[C@H](C)O2)C1)C(=O)c1c(OC)cccc1C3=O [AD 198, N-Benzyladriamycin-14-valerate] | no significant cardiotoxicity | – | – | – |
| COc1cccc2c1C(=O)c1c(O)c3c(c(O)c1C2=O)C[C@@](O)(C(=O)CO)C[C@@H]3O[C@H]1C[C@H](N)[C@H](O)[C@H](C)O1 [doxorubicin] | ventricular damage proportionate to dosage | 4.7 | 26 | 48 |
